The source of these data is ChEMBL document CHEMBL4396882, “2-Aminothiazole-4-carboxamides Enhance Readthrough of Premature Termination Codons by Aminoglycosides” (2019).

Each structure is given as a SMILES string. Calls of active or inactive are those of the source. The calls are words filed in the database; no cut-off is given here.

Experiment [1] concerns HDQ-P1. Kind of experiment: Induction of P53 expression in human HDQ-P1 cells assessed as enrichment ratio at 3 uM incubated for 72 hrs in presence of 50 uM G418 by Hoechst 33323 staining based fluorescence assay. It is filed as functional.
In experiment [2] the test system is HDQ-P1. Kind of experiment: Induction of P53 expression in human HDQ-P1 cells assessed as enrichment ratio at 10 uM incubated for 72 hrs in presence of 50 uM G418 by Hoechst 33323 staining based fluorescence assay. The experiment is classed as functional.
Experiment [3] deals with HDQ-P1. Kind of experiment: Induction of P53 expression in human HDQ-P1 cells assessed as enrichment ratio at 3 uM incubated for 72 hrs in presence of 50 uM G418 by automated electrophoresis western analysis. The experiment is classed as functional.
Experiment [4] concerns HDQ-P1. Kind of experiment: Induction of P53 expression in human HDQ-P1 cells assessed as enrichment ratio at 10 uM incubated for 72 hrs in presence of 50 uM G418 by automated electrophoresis western analysis. The experiment is classed as functional.
Experiment [5] deals with HDQ-P1. Kind of experiment: Cytotoxicity in human HDQ-P1 cells assessed as reduction in cell viability at 1 uM incubated for 72 hrs by MTT assay. The experiment is classed as functional, cell-based. A general note: Tetrazolium dyes change colour on reduction, which living cells bring about.
In experiment [6] the test system is HDQ-P1. Kind of experiment: Induction of P53 expression in human HDQ-P1 cells assessed as enrichment ratio at 10 uM incubated for 72 hrs by automated electrophoresis western analysis. It is filed as functional.
Experiment [7] concerns HDQ-P1. Description: Effect on human HDQ-P1 cells assessed as increase in TP53 R213X mRNA level at 10 uM incubated for 72 hrs in presence of G418 by RT-qPCR analysis. The experiment is classed as functional, cell-based. Background: In qPCR the cycle at which signal appears reflects the starting amount.
For experiment [8], the system named is HDQ-P1. Description: Cytotoxicity in human HDQ-P1 cells assessed as reduction in cell viability at 3 uM incubated for 72 hrs by MTT assay relative to control. The experiment is classed as functional.
Experiment [9] has as its system HDQ-P1. Kind of experiment: Cytotoxicity in human HDQ-P1 cells assessed as reduction in cell viability incubated for 72 hrs in presence of G418 by MTT assay. It is filed as functional, cell-based.
Experiment [10] relates to HDQ-P1. Kind of experiment: Ratio of enrichment ratio of test compound at 10 uM to enrichment ratio of CDX5-1 at 30 uM in human HDQ-P1 cells by automated electrophoresis western analysis. The experiment is classed as functional.
The test system of experiment [11] is HDQ-P1. Kind of experiment: Induction of P53 expression in human HDQ-P1 cells assessed as enrichment ratio at 10 uM incubated for 72 hrs in presence of 25 uM G418 by automated electrophoresis western analysis. The experiment is classed as functional.
Experiment [12] relates to HDQ-P1. Description: Effect on human HDQ-P1 cells assessed as increase in TP53 R213X mRNA level at 10 uM incubated for 72 hrs by RT-qPCR analysis. The experiment is classed as functional, cell-based.
The subject of experiment [13] is HDQ-P1. Kind of experiment: Induction of P53 expression in human HDQ-P1 cells assessed as enrichment ratio at 3 uM incubated for 72 hrs in presence of gentamicin by automated electrophoresis western analysis. The experiment is classed as functional.
Experiment [14] has as its system HDQ-P1. Kind of experiment: Induction of P53 expression in human HDQ-P1 cells assessed as enrichment ratio at 30 uM incubated for 72 hrs by automated electrophoresis western analysis. It is filed as functional.
Experiment [15] relates to HDQ-P1. Kind of experiment: Induction of P53 expression in human HDQ-P1 cells assessed as enrichment ratio at 30 uM incubated for 72 hrs in presence of 25 uM G418 by automated electrophoresis western analysis. The experiment is classed as functional.

On to `O=C(Nc1ccc2[nH]ccc2c1)c1csc(Nc2ccc3[nH]ncc3c2)n1`, for which the Ratio is reported as 1.3 in experiment [1] and 23 in [2].
For `O=C(Nc1ccccc1)c1csc(Nc2ccc3[nH]ncc3c2)n1`, in that order: 2.5 and 11.2.
Consider `COc1cc(NC(=O)c2csc(Nc3cccc4[nH]ncc34)n2)cc(OC)c1OC`, for which the Ratio stood at 8.2 in experiment [3], 20.1 in [4], 5.3 in experiment [1] and 7.2 in experiment [2].
For `O=C(Nc1ccc2c(c1)OCCO2)c1csc(Nc2cccc3[nH]ncc23)n1`, in that order: 3.4, 15.8, 3.4 and 15.8.
`CSc1ccc(NC(=O)c2cnc(Nc3ccc4[nH]ncc4c3)s2)cc1`: the figures for the Ratio in experiment [1] and in experiment [2] were 1.6 and 4.7, respectively.
For `O=C(Nc1ccc(F)cc1)c1csc(Nc2cccc3[nH]ncc23)n1`, the result in [5], in experiment [7] and in experiment [12] was inactive. Besides, the Ratio in experiment [3] stood at 13.1; in experiment [6], 0.3; in [4], 23.3; in experiment [10], 3; in [11], 25.7; in [1], 13.1. Besides, the Ratio in [2] is 23.3. The Activity in experiment [8] is 42%. Also, the result in experiment [9] was Active.
In the case of `O=C(Nc1ccc2c(c1)OCCO2)c1csc(Nc2ccc(=O)[nH]c2)n1`, the Ratio worked out at 2.4 in experiment [3], 2.3 in experiment [4], 3.8 in experiment [1] and 7 in experiment [2].
`O=C(Nc1ccc2[nH]ncc2c1)c1csc(Nc2ccc3[nH]ccc3c2)n1`: the Ratio in experiment [1] is reported as 1.4; in experiment [2], 8.
With `O=C(Nc1ccc2c(c1)OCO2)c1cnc(Nc2ccc3[nH]ncc3c2)s1`, the Ratio in experiment [1] stood at 1.2; in experiment [2] it was 19.2.
On to `CSc1ccc(NC(=O)c2csc(Nc3cccc4[nH]ncc34)n2)cc1`, for which the Ratio in experiment [13] is 10.8; in experiment [3], 5.3; in experiment [6], 0.1; in [4], 7.2; in experiment [10], 3; in experiment [11], 8.8. The Ratio in experiment [1] was found to be 8.2; in [2], 20.1. The outcome in experiment [5], in experiment [7] and in experiment [12] was inactive. For the same compound, in experiment [8], the Activity was 60%. Also, the result in experiment [9] was Active.
On to `O=C(Nc1ccc2c(c1)OCO2)c1csc(Nc2ccc3[nH]ncc3c2)n1`, for which the Ratio in experiment [1] is on record as 1.2; in experiment [2], 5.4.
Regarding `O=C(Nc1ccc2c(c1)OCO2)c1csc(Nc2ccc3ncccc3c2)n1`, the Ratio in experiment [3] is 3.6; in [4] it was 10.7; in experiment [1], 3.5; in [2], 10.7.
`COc1ccc(NC(=O)c2csc(Nc3cccc4[nH]ncc34)n2)cc1`: the Ratio in experiment [1] came to 1.6; in experiment [2], 5.9.
Regarding `O=C1NC(=O)c2cc(NCc3c(Cl)cccc3Cl)ccc21`, the Ratio in experiment [14] is 0.1; in experiment [15], 8.3; in experiment [6], 0.1; in [11], 2.8.
On to `COc1ccc(NC(=O)c2csc(Nc3cccc4[nH]ncc34)n2)cn1`, for which the Ratio was 1.4 in experiment [1] and 27.2 in experiment [2].
On the same counts, the results for `O=C(Nc1ccc2c(c1)OCCO2)c1csc(Nc2ccc3ncccc3c2)n1` are 1.6 and 8.7.
For `COc1ccc(NC(=O)c2cnc(Nc3ccc4[nH]ncc4c3)s2)cn1`, in that order: 2.2 and 7.8.
